The values below come from patent US5208344A, “Naphthalenepropionic acid derivatives as anti-inflammatory/antiallergic agents” (American Home Products Corporation, priority 1991, dated 1993).

Where a name gives a salt, the structure may show the parent alone.

Assay [1] deals with ovalbumin-induced bronchoconstriction. Kind of assay: inhibition of antigen (ovalbumin)-induced bronchoconstriction in anesthetized guinea pigs. The following applies: orally administered 4 hours before induction, guinea pig, 240 min. It is filed as in vivo. The method, then:
The compounds of the invention are tested to measure their in vivo ability to inhibit the bronchoconstriction induced in anesthetized guinea pigs by exogenously administered antigen.
Male Hartley guinea pigs (400-700 gm) are sensitized three weeks prior to antigen (ovalbumin-OA) challenge as follows: each guinea pig is given two intramuscular injections--0.35 ml of Grade V OA, 50 mg/ml, into each hindlimb.
Guinea pigs, fasted overnight but allowed water adlibitum, are anesthetized with 1.2 g/kg of urethane (intraperitoneal). Supplemental does of […] of urethane are administered intraperitoneally as needed. One carotid artery and one jugular vein are cannulated to allow for the monitoring of blood pressure and the administration of drugs, respectively. A duodenal cannula is inserted for intraduodenal dosing studies. The trachea of each animal is cannulated and connected to a Harvard respirator. […] Respiratory overflow pressure is measured from a side arm off the tracheal cannula which is connected via a Gould or Beckman pressure transducer to a suitable strip chart recorder. […]
Test compounds are administered intravenously, perorally, or intraduodenally at appropriate times prior to OA challenge. […] Control experiments are used to determine the effects of solvents on the measured parameters, and test data is corrected for any significant solvent effects.
Bronchoconstriction is assessed as increases in respiratory overflow pressure (cm H2 O). Changes in blood pressure (mm Hg) are also recorded.
Test compound-induced changes in the respiratory overflow pressure are assessed as percent changes from control experiments. […] The net change in overflow pressure is measured 5 minutes after antigen challenge and is calculated as follows. […] The percent change value for the drug treated group versus the control group is calculated as follows: […]

The target of assay [2] is T1, 5-lipoxygenase (Rattus norvegicus, UniProt P12527).
T1 construct: Peritoneal PMN are obtained from female Wistar rats (150-250 g); endogenous in cells; host or cells: rat glycogen-elicited peritoneal polymorphonuclear leukocytes, intact
T1 sequence (P12527 1-673): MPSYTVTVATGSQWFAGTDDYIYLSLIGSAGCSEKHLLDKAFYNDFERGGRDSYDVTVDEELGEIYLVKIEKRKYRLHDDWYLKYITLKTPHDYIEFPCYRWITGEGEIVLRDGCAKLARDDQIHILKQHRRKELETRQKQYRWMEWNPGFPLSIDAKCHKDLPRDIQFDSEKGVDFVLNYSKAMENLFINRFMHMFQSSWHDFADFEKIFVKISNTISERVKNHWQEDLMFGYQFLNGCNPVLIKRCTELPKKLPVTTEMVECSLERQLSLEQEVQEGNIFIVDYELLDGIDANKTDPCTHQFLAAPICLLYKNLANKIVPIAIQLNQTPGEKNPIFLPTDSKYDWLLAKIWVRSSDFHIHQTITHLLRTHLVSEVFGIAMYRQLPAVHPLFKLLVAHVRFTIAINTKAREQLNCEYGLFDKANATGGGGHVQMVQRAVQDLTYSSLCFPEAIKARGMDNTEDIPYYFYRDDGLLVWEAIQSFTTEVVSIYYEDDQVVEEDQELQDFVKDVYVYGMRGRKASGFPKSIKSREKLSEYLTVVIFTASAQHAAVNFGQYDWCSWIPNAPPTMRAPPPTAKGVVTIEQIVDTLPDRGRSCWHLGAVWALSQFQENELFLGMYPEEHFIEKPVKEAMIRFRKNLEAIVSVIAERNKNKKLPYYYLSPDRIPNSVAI
Nature of the assay: inhibition of 5-HETE synthesis by rat glycogen elicited polymorphonuclear leukocytes. It is filed as cell-based. The following applies: 10 μM, rat PMN, negative = potentiation of 5-HETE synthesis; for inhibition at 10 µM: read-out: % Inhibition of 5-LO (as 5-HETE). The gist of the method: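 Peritoneal PMN from female Wistar rats given i.p. glycogen 24 h earlier were preincubated with compound for 10 min at 37° C (2×10^7 cells/ml, 10 mM L-cysteine). They were then stimulated 10 min with 10 μM A23187 plus 0.5 μM [14C]arachidonic acid. 5-HETE was separated by TLC and quantified by scintillation.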

For assay [3], the system named is cyclooxygenase. Nature of the assay: inhibition of synthesis of cyclooxygenase products TxB2 and PGE2 (rat polymorphonuclear leukocytes). It is filed as cell-based. The note with it: 10 μM, rat PMN; for % Inhibition of CO (as PGE2): negative = potentiation of PGE2 synthesis. The gist of the method: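 Glycogen-elicited peritoneal PMN from female Wistar rats, 2×10^7 cells/ml in HBSS with Ca^++, Mg^++ and 10 mM L-cysteine, preincubated with compound 10 min at 37° C. Stimulated 10 min with A23187 (10 μM) plus 0.5 μM [14C] arachidonic acid; TxB2 and PGE2 quantified by TLC, autoradiography and scintillation counting.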

In assay [4] the test system is acute gastroirritation induced by naproxen. Nature of the assay: cytoprotective activity against NSAID (naproxen)-induced acute gastroirritation in rats. The following applies: drug 100 mg/kg peroral 1 hour before naproxen 25 mg/kg. It is filed as in vivo, rat. From the text: The assay of Example 44 is also used to measure the cytoprotective activity of the compounds against acute gastroirritation induced by a nonsteroidal anti-inflammatory drug (NSAID).

For assay [5], the target named is T2, LTD4 (Cavia porcellus, UniProt Q2NNR5).
T2 construct: isolated guinea pig trachea; from tissue; host or cells: guinea pig tracheal rings
T2 sequence (Q2NNR5 1-340): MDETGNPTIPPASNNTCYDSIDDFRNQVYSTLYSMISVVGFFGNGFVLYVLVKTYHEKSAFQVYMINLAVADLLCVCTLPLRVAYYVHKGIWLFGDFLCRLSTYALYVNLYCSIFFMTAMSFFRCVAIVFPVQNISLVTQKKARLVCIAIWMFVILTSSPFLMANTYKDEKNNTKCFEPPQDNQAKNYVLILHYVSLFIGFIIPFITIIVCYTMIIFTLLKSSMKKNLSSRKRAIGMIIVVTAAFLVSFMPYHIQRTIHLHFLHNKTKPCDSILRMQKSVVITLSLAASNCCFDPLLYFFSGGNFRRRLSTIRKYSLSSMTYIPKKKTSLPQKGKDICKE
Nature of the assay: inhibition of LTD4-induced bronchospasm in guinea pigs. It is filed as in vivo. The following applies: 25 mg/kg intraduodenally, 10 minutes before LTD4; guinea pig. The method, then: The assay of this Example measures the in vivo ability of the compounds of the invention to inhibit the bronchospasm induced in guinea pigs by the exogenously administered leukotrienes C4 and/or D4.
Male Hartley strain guinea pigs (350-600 g) are anesthetized with pentobarbital sodium (50 mg/kg, i.p.). The jugular vein is cannulated for injection of drugs and the carotid artery for monitoring blood pressure. The trachea is cannulated for artificial ventilation by a miniature Starling pump and for indirect measurement of respiratory volume changes. The animals are then pretreated with succinylcholine (2 mg/kg i.v.) and indomethacin (10 mg/kg i.v.) in trizma 8.3 buffer, 9 minutes prior to leukotriene challenge. Submaximal bronchoconstrictor responses are established in control animals by varying the dose-levels of leukotriene. Intravenous dose-levels for LTC4 range from 0.4 to 0.6 μg/kg and for LTD4 the range is from 0.3 to 0.5 μg/kg. The aerosol bronchoprovocation dose for LTC4 is generated from 1.6 μM solution and for LTD4 from a 2.0 μM solution.
Test drugs (dissolved in a solvent such as propylene glycol, polyethylene glycol 400 or saline) are administered either intraduodenally, by aerosol or intragastrically at 2 or 10 minutes before induction of bronchospasm by administration of either LTC4 or LTD4 at the predetermined dose-levels. Aerosols of soluble drugs or leukotrienes are produced in-line for 10 seconds only by actuation of an ultrasonic nebulizer (Monaghan). Aerosolized drug dosage is expressed in terms of solution concentration and by a fixed aerosol exposure time (approximately 10 seconds). Control animals receive solvent (2 ml/kg i.d. or appropriate aerosol) in place of drug.
Respiratory volume changes are determined by a calibrated piston whose travel is recorded, via a linear transducer, on a Beckman Dynograph recorder. Maximal bronchoconstrictor volume is determined by clamping off the trachea at the end of the experiment. Overflow volumes at 1,3 and 5 minutes are obtained from the recorded charts.
Area under the volume overflow curve (AUC) is estimated, using the overflow values at 1,3 and 5 minutes, and expressed as a percentage of the maximal overflow AUC (equation 1): [formula] Drug effects are reported as percent inhibition of % max AUC values obtained from appropriate control animals (equation 2): [formula]
Student's t-test for unpaired data is used to determine statistical signifiance (p<0.05). IC50 values can also be determined by inverse prediction from linear regression liens through points between 10 and 90% inhibition.

For assay [6], the system named is carrageenan paw edema. Nature of the assay: rat carrageenan paw edema assay. The class given is in vivo. The note with it: 50 mg/kg peroral, 1 hour prior to carrageenan; rat. The protocol: The compounds of the invention are further tested in the rat carrageenan paw edema assay to determine their ability to inhibit the acute inflammatory response.
140-180 gm male Sprague-Dawley rats, in groups of 6 animals are injected subcutaneously in the right paw with 0.1 ml of 1% carrageenan at zero time. Mercury plethysmographic readings (ml) of the paw are made at zero time and 3 hours later. Test compounds are suspended or dissolved in 0.5% methylcellulose and given perorally 1 hour prior to carrageenan administration.
The increase in paw volume (edema in ml.) produced by the carrageenan is measured. […] Unpaired Student's t-test is used to determine statistical significance.

Usually inhibition stands for the drop in the measured response relative to a control, in per cent. With `C[C@H](C(=O)O)c1ccc2cc(OCc3ccc4ccccc4n3)ccc2c1` [Example 7, S-(α)-α-Methyl-6-(2-quinolinylmethoxy)-2-naphthaleneacetic acid], in assay [1], the “ED50 (ovalbumin-induced bronchoconstriction)” value was 100 mg/kg. Besides, the inhibition at 10 µM in assay [2] came to 100%. Besides, the “% Inhibition of CO (as PGE2)” value in assay [3] is listed as -17%. Moreover, in assay [4], the “% of Rats With Lesions” value turned out to be 87.5% and the “Comments (protection)” value was “no protection”.

In the case of `C[C@H](C(=O)O)c1ccc2cc(OCc3ccc4ccccc4n3)ccc2c1` [Example 16, S-(+)-α-Methyl-6-(2-quinolinylmethoxy)-2-naphthaleneacetic acid, sodium salt], in assay [1] (sodium salt), the “ED50 (ovalbumin-induced bronchoconstriction)” value is 15 mg/kg. In assay [2] (sodium salt), the “% Inhibition of 5-LO (as 5-HETE)” value came to 100%. Also, the “% Inhibition of CO (as PGE2)” value in assay [3] (sodium salt) is reported as -13%.

One may read the % Inhibition as the share of the control response that was lost under treatment. Regarding `CC(C(=O)O)c1ccc2cc(OCc3nc4ccccc4n3C)ccc2c1` (stereo not drawn) [Example 3, α-Methyl-6-[(1-methyl-1H-benzimidazol-2-yl)-methoxy]-2-naphthaleneacetic acid], in assay [2], the inhibition at 10 µM came to 24%. In addition, in assay [3], the “% Inhibition of CO (as TxB2)” value came out at 15% and the “% Inhibition of CO (as PGE2)” value is given as -29%. Besides, the “% Inhibition (LTD4-induced bronchospasm)” value in assay [5] came to 80%. Further, the “% Inhibition at 50 mg/kg (peroral)” value in assay [6] amounted to 32%.
